{"source": "patent US20250295626A1", "about": "“CARBON MONOXIDE-RELEASING MOLECULE (CORM) OR COMPOSITION THEREOF FOR USE IN THE TREATMENT OR THE PREVENTION OF AN INTESTINAL DYSBIOSIS IN A SUBJECT” (priority 2022, published 2025)", "assay_type_in_all_cases": "in vivo, C57BL6 mice", "key": {"[1]": {"test": "Levels of blood carbon monoxide hemoglobin (COHb) after oral administration", "description": "The levels of COHb (carbon monoxide bound to hemoglobin) were measured at different time points after oral administration of CORM-401 in two groups of eight-week-old male C57BL6 mice that were fed either a standard diet (SD) or a high fat diet (HFD) for 14 weeks (n=9-10 per group). CORM-401 was freshly prepared in phosphate buffer solution (PBS) and administered orally at a dose of 30 mg/kg=90 μmoles/kg (n=6) and COHb in blood was measured after 1, 6, 24 and 48 hours. • b) Results"}, "[2]": {"test": "CO accumulation in intestinal tissues after oral administration (hemoCD1 quantification)", "settings": "oral 30 mg/kg", "description": "Eight-week-old male C57BL6 mice weighing approximately 25 g were treated with an oral administration of either CORM-401 (30 mg/kg) or PBS (control group) and then sacrificed after 1, 3, 6, 24 and 48 hours (n=6 per time point). Organs were collected to determine the levels of CO accumulation in different intestinal tissues following the two treatments. The body compartments where the intestinal microbiota is most likely to be present such as the caecum, caecum content, colon and faeces were analyzed. CO accumulation was quantified using the CO sensitive scavenger hemoCD1 as previously reported by the inventors such as in Mao et al, 2021 [10]; Minegishi et al, 2017 [11]. Briefly, fifty milligrams of tissue were homogenized in 0.5 ml PBS in the presence of hemoCD1 (2-10 μM) and sodium dithionite (1 mg). Tissue homogenates were first sonicated, then samples were centrifuged, and the supernatants filtered before measurements by UV-VIS absorption spectroscopy. The concentration of CO was calculated from the absorbances at 422 and 434 nm using a reported equation (Kitagishi et al, 2010; Braud et al 2018 [13]). • b) Results"}, "[3]": {"test_system": "intestinal microbiota of HFD mice", "test": "Abundance of bacterial species of intestinal microbiota in faeces (shotgun metagenomic/metatranscriptomic sequencing)", "description": "Eight-week-old male C57BL6 mice weighing approximately 25 g were fed either a standard diet (SD), high fat diet (HFD) or HFD+CORM-401 for 14 weeks (n=9-10 per group). CORM-401 was prepared freshly in phosphate buffer solution (PBS) and administered orally to mice three times a week each time at a dose of (30 mg/kg=90 μmoles/kg) during the entire HFD regime. Faeces from the three groups of mice were then collected after the 14 week HFD regime for microbiota analysis before mice were sacrificed.\nThe stool samples DNA and RNA (n=3 per group) were extracted and the sequencing was carried out by a shotgun metagenomic/metatranscriptomic technique as previously described. Briefly, a pre-extraction step combining mechanical, enzymatic and chemical procedures was performed prior to extraction by means of a QIAsymphony PowerFecal Pro DNA Kit (QIAGEN). The extracts were used for DNA/RNA library preparation and determination of pair-end sequences using a NextSeq500 Instrument (Illumina). Fastq files were analysed by an in-house software MetaMIC (v2.2.0). The data were filtered based on quality (phred score) and the sequences were mapped against several custom databases, counted and collected in a separate Fastq file. Sequence counts were made for each bacterial species and compared to the environmental control. The number of sequences for each species was used to determine their relative abundance in each group of mice. • b) Results"}, "[4]": {"settings": "HFD + CORM, faeces after 14 weeks, 30 mg/kg orally three times a week, average of 3"}, "[5]": {"settings": "HFD mice treated 14 weeks, 30 mg/kg orally three times a week"}}}
{"smiles": "CN(CC(=O)O)C(=S)[S-].[C-]#[O+].[C-]#[O+].[C-]#[O+].[C-]#[O+].[Mn]", "note": "[CORM-401]", "values": [{"measurement": "COHb levels in blood", "setting": "[1]; 1 hour after oral administration of 30 mg/kg, both SD-fed and HFD-fed mice", "value": "significantly increased"}, {"measurement": "Period over which blood COHb gradually decreased to baseline levels", "setting": "[1]; oral 30 mg/kg, SD-fed and HFD-fed mice", "value": 48, "unit": "h"}, {"measurement": "Time at which the maximum CO content was reached", "setting": "[2]; all compartments (caecum, caecum content, colon, faeces)", "value": 6, "unit": "h"}, {"measurement": "Time after which CO content returned to basal levels", "setting": "[2]; all compartments", "value": 48, "unit": "h"}, {"measurement": "CO accumulation (time-dependent)", "setting": "[2]; caecum tissue, caecum content, colon and faeces, vs PBS control", "value": "significantly accumulated"}, {"measurement": "Abundance of Adlercreutzia equolifaciens", "setting": "[3]; [4]", "value": "4445 number of sequences"}, {"measurement": "Abundance of Aerococcus viridans", "setting": "[3]; [4]", "value": "1650 number of sequences"}, {"measurement": "Abundance of Akkermansia muciniphila", "setting": "[3]; [4]", "value": "120300 number of sequences"}, {"measurement": "Abundance of Alistipes finegoldii", "setting": "[3]; [4]", "value": "6727 number of sequences"}, {"measurement": "Abundance of Alistipes shahii", "setting": "[3]; [4]", "value": "9490 number of sequences"}, {"measurement": "Abundance of Bacteroides caecimuris", "setting": "[3]; [4]", "value": "14812 number of sequences"}, {"measurement": "Abundance of Bacteroides cellulosilyticus", "setting": "[3]; [4]", "value": "246 number of sequences"}, {"measurement": "Abundance of Bacteroides dorei", "setting": "[3]; [4]", "value": "3093 number of sequences"}, {"measurement": "Abundance of Bacteroides fragilis", "setting": "[3]; [4]", "value": "3651 number of sequences"}, {"measurement": "Abundance of Bacteroides xylanisolvens", "setting": "[3]; [4]", "value": "1151 number of sequences"}, {"measurement": "Abundance of Barnesiella viscericola", "setting": "[3]; [4]", "value": "350 number of sequences"}, {"measurement": "Abundance of Blautia sp. YL58", "setting": "[3]; [4]", "value": "934 number of sequences"}, {"measurement": "Abundance of Burkholderiales bacterium YL45", "setting": "[3]; [4]", "value": "159 number of sequences"}, {"measurement": "Abundance of Carnobacterium divergens", "setting": "[3]; [4]", "value": "1726 number of sequences"}, {"measurement": "Abundance of Clostridioides difficile", "setting": "[3]; [4]", "value": "1101 number of sequences"}, {"measurement": "Abundance of Clostridium bolteae", "setting": "[3]; [4]", "value": "3559 number of sequences"}, {"measurement": "Abundance of Enterococcus faecalis", "setting": "[3]; [4]", "value": "4655 number of sequences"}, {"measurement": "Abundance of Enterococcus faecium", "setting": "[3]; [4]", "value": "7750 number of sequences"}, {"measurement": "Abundance of Erysipelotrichaceae bacterium I46", "setting": "[3]; [4]", "value": "1788 number of sequences"}, {"measurement": "Abundance of Faecalibacterium prausnitzii", "setting": "[3]; [4]", "value": "3622 number of sequences"}, {"measurement": "Abundance of Faecalibaculum rodentium", "setting": "[3]; [4]", "value": "120296 number of sequences"}, {"measurement": "Abundance of Faecalitalea cylindroides", "setting": "[3]; [4]", "value": "1039 number of sequences"}, {"measurement": "Abundance of Flavonifractor plautii", "setting": "[3]; [4]", "value": "7720 number of sequences"}, {"measurement": "Abundance of Intestinimonas butyriciproducens", "setting": "[3]; [4]", "value": "2426 number of sequences"}, {"measurement": "Abundance of Lachnoclostridium phocaeense", "setting": "[3]; [4]", "value": "2366 number of sequences"}, {"measurement": "Abundance of Lachnoclostridium sp. YL32", "setting": "[3]; [4]", "value": "14254 number of sequences"}, {"measurement": "Abundance of Lactobacillus acidipiscis", "setting": "[3]; [4]", "value": "630 number of sequences"}, {"measurement": "Abundance of Lactobacillus agilis", "setting": "[3]; [4]", "value": "2223 number of sequences"}, {"measurement": "Abundance of Lactobacillus animalis", "setting": "[3]; [4]", "value": "1355 number of sequences"}, {"measurement": "Abundance of Lactobacillus fermentum", "setting": "[3]; [4]", "value": "10256 number of sequences"}, {"measurement": "Abundance of Lactobacillus gallinarum", "setting": "[3]; [4]", "value": "928 number of sequences"}, {"measurement": "Abundance of Lactobacillus gasseri", "setting": "[3]; [4]", "value": "61826 number of sequences"}, {"measurement": "Abundance of Lactobacillus helveticus", "setting": "[3]; [4]", "value": "2955 number of sequences"}, {"measurement": "Abundance of Lactobacillus johnsonii", "setting": "[3]; [4]", "value": "162300 number of sequences"}, {"measurement": "Abundance of Lactobacillus murinus", "setting": "[3]; [4]", "value": "4440 number of sequences"}, {"measurement": "Abundance of Lactobacillus plantarum", "setting": "[3]; [4]", "value": "1011 number of sequences"}, {"measurement": "Abundance of Lactobacillus reuteri", "setting": "[3]; [4]", "value": "339700 number of sequences"}, {"measurement": "Abundance of Lactobacillus ruminis", "setting": "[3]; [4]", "value": "2160 number of sequences"}, {"measurement": "Abundance of Lactobacillus salivarius", "setting": "[3]; [4]", "value": "3546 number of sequences"}, {"measurement": "Abundance of Lactococcus garvieae", "setting": "[3]; [4]", "value": "3953 number of sequences"}, {"measurement": "Abundance of Lactococcus lactis", "setting": "[3]; [4]", "value": "642300 number of sequences"}, {"measurement": "Abundance of Lactococcus piscium", "setting": "[3]; [4]", "value": "4133 number of sequences"}, {"measurement": "Abundance of Libanicoccus massiliensis", "setting": "[3]; [4]", "value": "4193 number of sequences"}, {"measurement": "Abundance of Listeria monocytogenes", "setting": "[3]; [4]", "value": "2783 number of sequences"}, {"measurement": "Abundance of Mordavella sp. Marseille-P3756", "setting": "[3]; [4]", "value": "1240 number of sequences"}, {"measurement": "Abundance of Muribaculum intestinale", "setting": "[3]; [4]", "value": "21500 number of sequences"}, {"measurement": "Abundance of Olsenella sp. Marseille-P2300", "setting": "[3]; [4]", "value": "4915 number of sequences"}, {"measurement": "Abundance of Olsenella uli", "setting": "[3]; [4]", "value": "1483 number of sequences"}, {"measurement": "Abundance of Olsenella umbonata", "setting": "[3]; [4]", "value": "1620 number of sequences"}, {"measurement": "Abundance of Oscillibacter valericigenes", "setting": "[3]; [4]", "value": "1053 number of sequences"}, {"measurement": "Abundance of Parabacteroides goldsteinii", "setting": "[3]; [4]", "value": "43 number of sequences"}, {"measurement": "Abundance of Romboutsia ilealis", "setting": "[3]; [4]", "value": "21923 number of sequences"}, {"measurement": "Abundance of Roseburia intestinalis", "setting": "[3]; [4]", "value": "1190 number of sequences"}, {"measurement": "Abundance of Ruminiclostridium sp. KB18", "setting": "[3]; [4]", "value": "18969 number of sequences"}, {"measurement": "Abundance of Streptococcus thermophilus", "setting": "[3]; [4]", "value": "7718 number of sequences"}, {"measurement": "Abundance of uncultured Firmicutes bacterium", "setting": "[3]; [4]", "value": "1355 number of sequences"}, {"measurement": "Change in the abundance of Alistipes fingoldii", "setting": "[3]; [5]", "value": "marked increase"}, {"measurement": "Change in the abundance of Alistipes shahii", "setting": "[3]; [5]", "value": "marked increase"}, {"measurement": "Change in the abundance of Olsenella uli", "setting": "[3]; [5]", "value": "marked increase"}, {"measurement": "Change in the abundance of Olsenella umbonata", "setting": "[3]; [5]", "value": "marked increase"}, {"measurement": "Change in the abundance of Romboutsia ilealis", "setting": "[3]; [5]", "value": "decrease"}, {"measurement": "Rank of Akkermansia muciniphila in the intestinal bacteria profile", "setting": "[3]; [5]", "value": "among the most dominant species"}, {"measurement": "Overall effect on the intestinal microbiota", "setting": "[3]; HFD mice, oral administration", "value": "reshapes the intestinal microbiota HFD mice towards a healthy phenotype"}]}
